Test results as given in the supplement of paper PMC11061612.

Key:
Test in all cases: combination Emax (second highest fraction inhibited in the dose matrix, 72 h); higher = more inhibition; extreme values may be limits of the assay
[1] = tested on: CAL-54 (Kidney Carcinoma)
How it was run: (§1)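 Cell lines grown in DMEM/F12 or RPMI with 10% FBS were plated in 1536-well plates and held 24 hours at 37°C, 5% CO2 before 72 hours of exposure to two-drug dose matrices, with DMSO typically at 0.2%. CellTiter-Glo 2.0 luminescence gave viability, which was converted to inhibition. Vehicle wells were set to 0 and blank wells to 1. Combination Emax is the second-highest inhibition in the matrix, and Bliss excess is the observed combination effect minus the expected EA + EB − EA·EB, where EA and EB are the single-agent effects.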

[2] = tested on: HARA (Squamous Cell Lung Carcinoma)
How it was run: as §1

[3] = tested on: HDLM-2 (Hodgkin's Lymphoma)
How it was run: as §1

[4] = tested on: HO-1-u-1 (Oral Cavity Carcinoma)
How it was run: as §1

[5] = tested on: K5 (Thyroid Gland Carcinoma)
How it was run: as §1

[6] = tested on: LoVo (Colorectal Carcinoma)
How it was run: as §1

[7] = tested on: MDA-MB-468 (Breast Carcinoma)
How it was run: as §1

NB14 (Neuroblastoma) = tested on: NB14 (Neuroblastoma)
How it was run: as §1

NCI-H2795 (Mesothelioma) = tested on: NCI-H2795 (Mesothelioma)
How it was run: as §1

[8] = tested on: NCI-H69 (Small Cell Lung Carcinoma)
How it was run: as §1

[9] = tested on: OC-314 (Ovarian Carcinoma)
How it was run: as §1

[10] = tested on: RPMI-6666 (Non-Cancerous)
How it was run: as §1

[11] = tested on: RT-112 (Bladder Carcinoma)
How it was run: as §1

[12] = tested on: SW1116 (Colorectal Carcinoma)
How it was run: as §1

[13] = tested on: SW1271 (Small Cell Lung Carcinoma)
How it was run: as §1

[14] = tested on: CAL-51 (Breast Carcinoma)
How it was run: as §1

[15] = tested on: HCC-15 (Squamous Cell Lung Carcinoma)
How it was run: as §1

[16] = tested on: KYSE-410 (Esophageal Squamous Cell Carcinoma)
How it was run: as §1

[17] = tested on: OVCAR-8 (Ovarian Carcinoma)
How it was run: as §1

[18] = tested on: UMC-11 (Other Solid Carcinomas)
How it was run: as §1

| SMILES | combination Emax [1] | combination Emax [2] | combination Emax [3] | combination Emax [4] | combination Emax [5] | combination Emax [6] | combination Emax [7] | combination Emax (NB14 (Neuroblastoma)) | combination Emax (NCI-H2795 (Mesothelioma)) | combination Emax [8] | combination Emax [9] | combination Emax [10] | combination Emax [11] | combination Emax [12] | combination Emax [13] | combination Emax [14] | combination Emax [15] | combination Emax [16] | combination Emax [17] | combination Emax [18] |
| --- | --- | --- | --- | --- | --- | --- | --- | --- | --- | --- | --- | --- | --- | --- | --- | --- | --- | --- | --- | --- |
| C=CCn1c(=O)c2cnc(Nc3ccc(N4CCN(C)CC4)cc3)nc2n1-c1cccc(C(C)(C)O)n1 [AZD1775] + CCc1c2c(nc3ccc(O)cc13)-c1cc3c(c(=O)n1C2)COC(=O)[C@]3(O)CC [SN-38] (first compound max 1 µM, partner max 0.3 µM) | 0.843 | 0.943 | 0.778 | 0.869 | 0.594 | 0.818 | 0.828 | 0.997 | 0.779 | 0.748 | 0.996 | 0.917 | 0.985 | 0.43 | 0.62 |  |  |  |  |  |
| COc1nnc2ccc(N3CCC(c4ccc(OCCN5CCN(C)C(=O)[C@H]5C)cc4)CC3)nn12 [AZD5153] + Cc1c2c(nn1C)CSCc1cc(n(C)n1)CSc1cc(c3ccccc3c1)OCCCc1c(C(=O)O)n(C)c3c-2c(Cl)ccc13 [AZD5991] (first compound max 1 µM, 7x7, partner max 1 µM) | 0.729 | 0.741 | 0.987 | 0.561 | 0.678 | 0.545 |  | 0.934 | 0.864 | 0.507 | 0.842 | 0.804 | 0.922 | 0.414 | 0.512 | 0.917 | 0.535 | 0.348 | 0.905 | 0.994 |
| COc1nnc2ccc(N3CCC(c4ccc(OCCN5CCN(C)C(=O)[C@H]5C)cc4)CC3)nn12 [AZD5153] + Cn1cnc2c(F)c(Nc3ccc(Br)cc3Cl)c(C(=O)NOCCO)cc21 [Selumetinib] (first compound max 1 µM, 7x7, partner max 10 µM) | 0.765 | 0.708 | 0.393 | 0.558 | 0.845 | 0.862 |  | 0.892 | 0.853 | 0.543 | 0.795 | 0.692 | 0.436 | 0.699 | 0.676 | 0.712 | 0.693 | 0.345 | 0.759 | 0.704 |
| Cn1cnc2c(F)c(Nc3ccc(Br)cc3Cl)c(C(=O)NOCCO)cc21 [Selumetinib] + C[C@@H]1COCCN1C2=NC(=NC(=C2)C3(CC3)[S@](=N)(=O)C)C4=C5C=CNC5=NC=C4 [AZD6738] (first compound max 10 µM, 7x7, partner max 10 µM) | 0.616 | 0.835 | 0.243 | 0.718 | 0.689 | 0.738 |  | 0.97 | 0.855 | 0.261 | 0.753 | 0.804 | 0.555 | 0.476 | 0.552 | 0.964 | 0.503 | 0.302 | 0.739 | 0.603 |
| Cn1cnc2c(F)c(Nc3ccc(Br)cc3Cl)c(C(=O)NOCCO)cc21 [Selumetinib] + C=CCn1c(=O)c2cnc(Nc3ccc(N4CCN(C)CC4)cc3)nc2n1-c1cccc(C(C)(C)O)n1 [AZD1775] (first compound max 10 µM, partner max 1 µM) | 0.643 | 0.919 | 0.71 | 0.456 | 0.596 | 0.723 |  | 1 | 0.851 | 0.133 | 0.452 | 0.829 | 0.61 | 0.444 | 0.565 | 0.893 | 0.612 | 0.431 | 0.872 | 0.584 |
| COc1nnc2ccc(N3CCC(c4ccc(OCCN5CCN(C)C(=O)[C@H]5C)cc4)CC3)nn12 [AZD5153] + C[C@@H]1COCCN1C2=NC(=NC(=C2)C3(CC3)[S@](=N)(=O)C)C4=C5C=CNC5=NC=C4 [AZD6738] (first compound max 1 µM, 7x7, partner max 10 µM) | 0.823 | 0.832 | 0.525 | 0.89 | 0.788 | 0.814 |  | 0.97 | 0.801 | 0.735 | 0.981 | 0.834 | 0.737 | 0.432 | 0.57 | 0.993 | 0.513 | 0.484 | 0.924 | 0.912 |
| CS(=O)(=O)CCNCc1ccc(-c2ccc3ncnc(Nc4ccc(OCc5cccc(F)c5)c(Cl)c4)c3c2)o1 [Lapatinib] + Cn1cnc2c(F)c(Nc3ccc(Br)cc3Cl)c(C(=O)NOCCO)cc21 [Selumetinib] (first compound max 10 µM, 7x7, partner max 10 µM) | 0.559 | 0.76 | 0.372 | 0.789 | 0.597 | 0.742 | 0.882 | 0.898 | 0.893 | 0.425 | 0.691 | 0.462 | 0.486 | 0.73 | 0.646 |  |  |  |  |  |
